Columns and labels:
[1] = target: T1, Mitogen-activated protein kinase 10 (Homo sapiens, UniProt P53779); test: Inhibition of N-terminal His(6)-tagged truncated human JNK3 transfected in baculovirus expression system by fluorescence anisotropy
[2] = target: T2, Mitogen-activated protein kinase 14 (Homo sapiens, UniProt Q16539); test: Inhibition of N-terminal GST-tagged p38alpha expressed in Escherichia coli by fluorescence anisotropy
[3] = target: T2, Mitogen-activated protein kinase 14; test: Inhibition of histidine-tagged human recombinant p38alpha after 120 mins by TR-FRET assay
[4] = target: Mitogen-activated protein kinase 9 (Homo sapiens, UniProt P45984); test: Inhibition of N-terminal histidine-tagged human full length JNK2-alpha-2 by radiometric filter binding assay
[5] = target: T3, Mitogen-activated protein kinase 8 (Homo sapiens, UniProt P45983); test: Inhibition of N-terminal histidine-tagged human full length JNK1-alpha-1 by radiometric filter binding assay
[6] = target: T1, Mitogen-activated protein kinase 10; test: Inhibition of N-terminal histidine-tagged human full length JNK3 by radiometric filter binding assay
[7] = target: Mitogen-activated protein kinase 1 (Homo sapiens, UniProt P28482); test: Inhibition of N-terminal GST-tagged human full length Erk2 by radiometric filter binding assay
[8] = target: Serine/threonine-protein kinase B-raf (Homo sapiens, UniProt P15056); test: Inhibition of B-Raf
[9] = target: Macrophage colony-stimulating factor 1 receptor (Homo sapiens, UniProt P07333); test: Inhibition of c-Fms
[10] = target: Cyclin-dependent kinase 2 (Homo sapiens, UniProt P24941); test: Inhibition of CDK2
[11] = target: Receptor tyrosine-protein kinase erbB-2 (Homo sapiens, UniProt P04626); test: Inhibition of ErbB2
[12] = target: Glycogen synthase kinase-3 beta (Homo sapiens, UniProt P49841); test: Inhibition of GSK3-beta
[13] = target: T4, Inhibitor of nuclear factor kappa-B kinase subunit alpha (Homo sapiens, UniProt O15111); test: Inhibition of IKKalpha
T4 sequence (O15111 whole entry): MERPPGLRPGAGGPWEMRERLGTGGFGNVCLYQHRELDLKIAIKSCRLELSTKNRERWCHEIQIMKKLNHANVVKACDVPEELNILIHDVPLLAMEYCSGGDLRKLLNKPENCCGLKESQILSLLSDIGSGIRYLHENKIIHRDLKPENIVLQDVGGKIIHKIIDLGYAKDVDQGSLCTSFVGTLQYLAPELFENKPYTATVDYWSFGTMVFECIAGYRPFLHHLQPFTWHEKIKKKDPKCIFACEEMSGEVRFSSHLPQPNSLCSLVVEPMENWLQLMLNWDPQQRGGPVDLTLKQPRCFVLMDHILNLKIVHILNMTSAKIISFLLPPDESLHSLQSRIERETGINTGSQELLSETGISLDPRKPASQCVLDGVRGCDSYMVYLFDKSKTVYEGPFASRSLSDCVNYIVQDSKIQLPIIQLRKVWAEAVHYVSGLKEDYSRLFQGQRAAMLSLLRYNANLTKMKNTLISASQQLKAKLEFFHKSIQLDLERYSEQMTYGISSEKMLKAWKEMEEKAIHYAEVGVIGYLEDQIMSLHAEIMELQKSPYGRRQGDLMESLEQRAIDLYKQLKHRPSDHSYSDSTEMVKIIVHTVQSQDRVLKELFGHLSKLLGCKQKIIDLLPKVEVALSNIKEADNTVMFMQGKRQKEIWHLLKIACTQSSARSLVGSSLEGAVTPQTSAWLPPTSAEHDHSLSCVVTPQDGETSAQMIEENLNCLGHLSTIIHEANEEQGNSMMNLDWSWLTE

[14] = target: T5, Inhibitor of nuclear factor kappa-B kinase subunit beta (Homo sapiens, UniProt O14920); test: Inhibition of IKK-beta
T5 sequence (O14920 whole entry): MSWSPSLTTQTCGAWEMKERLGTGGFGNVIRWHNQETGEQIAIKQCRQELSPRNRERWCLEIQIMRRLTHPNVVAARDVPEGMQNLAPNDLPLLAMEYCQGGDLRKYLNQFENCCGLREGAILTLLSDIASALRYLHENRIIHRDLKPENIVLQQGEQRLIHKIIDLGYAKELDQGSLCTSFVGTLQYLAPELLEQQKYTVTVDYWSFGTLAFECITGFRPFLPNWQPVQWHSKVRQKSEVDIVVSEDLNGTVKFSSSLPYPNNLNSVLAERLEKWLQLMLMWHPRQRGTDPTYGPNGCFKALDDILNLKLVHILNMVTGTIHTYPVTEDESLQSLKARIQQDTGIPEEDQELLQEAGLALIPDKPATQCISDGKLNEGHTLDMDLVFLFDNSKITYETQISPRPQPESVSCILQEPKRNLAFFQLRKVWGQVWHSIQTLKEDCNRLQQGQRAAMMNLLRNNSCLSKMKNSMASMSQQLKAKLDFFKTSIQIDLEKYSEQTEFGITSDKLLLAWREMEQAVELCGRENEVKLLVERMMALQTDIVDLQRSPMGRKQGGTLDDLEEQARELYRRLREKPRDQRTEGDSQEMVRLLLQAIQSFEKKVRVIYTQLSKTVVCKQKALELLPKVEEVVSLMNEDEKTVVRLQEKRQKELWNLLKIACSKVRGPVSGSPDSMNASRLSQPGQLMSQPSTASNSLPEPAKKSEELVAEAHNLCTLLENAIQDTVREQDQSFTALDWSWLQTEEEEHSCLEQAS

[15] = target: Mitogen-activated protein kinase kinase kinase 11 (Homo sapiens, UniProt Q16584); test: Inhibition of MLK3
[16] = target: Serine/threonine-protein kinase PLK1 (Homo sapiens, UniProt P53350); test: Inhibition of PLK1
[17] = target: Rho-associated protein kinase 1 (Homo sapiens, UniProt Q13464); test: Inhibition of ROCK1
[18] = target: T6, Serine/threonine-protein kinase Sgk1 (Homo sapiens, UniProt O00141); test: Inhibition of SGK1
T6 sequence (O00141 whole entry): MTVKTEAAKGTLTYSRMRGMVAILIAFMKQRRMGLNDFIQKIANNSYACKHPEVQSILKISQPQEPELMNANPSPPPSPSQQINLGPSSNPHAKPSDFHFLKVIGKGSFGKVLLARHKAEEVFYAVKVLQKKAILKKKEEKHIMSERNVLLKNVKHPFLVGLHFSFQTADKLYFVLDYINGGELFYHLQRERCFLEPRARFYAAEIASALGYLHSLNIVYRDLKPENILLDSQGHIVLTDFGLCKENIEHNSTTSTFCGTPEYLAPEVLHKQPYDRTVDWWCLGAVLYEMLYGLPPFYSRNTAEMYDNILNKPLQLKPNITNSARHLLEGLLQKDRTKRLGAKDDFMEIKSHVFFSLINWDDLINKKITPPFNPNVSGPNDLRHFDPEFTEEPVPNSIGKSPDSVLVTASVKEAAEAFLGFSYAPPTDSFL

[19] = target: Tyrosine-protein kinase Lck (Homo sapiens, UniProt P06239)
[20] = target: T3, Mitogen-activated protein kinase 8; test: Inhibition of JNK1 by high throughput screening
[21] = target: T1, Mitogen-activated protein kinase 10; test: Inhibition of JNK3 by high throughput screening
[22] = target: T2, Mitogen-activated protein kinase 14; test: Inhibition of p38alpha by high throughput screening

T1 sequence (P53779 whole entry, the tested form may be a part): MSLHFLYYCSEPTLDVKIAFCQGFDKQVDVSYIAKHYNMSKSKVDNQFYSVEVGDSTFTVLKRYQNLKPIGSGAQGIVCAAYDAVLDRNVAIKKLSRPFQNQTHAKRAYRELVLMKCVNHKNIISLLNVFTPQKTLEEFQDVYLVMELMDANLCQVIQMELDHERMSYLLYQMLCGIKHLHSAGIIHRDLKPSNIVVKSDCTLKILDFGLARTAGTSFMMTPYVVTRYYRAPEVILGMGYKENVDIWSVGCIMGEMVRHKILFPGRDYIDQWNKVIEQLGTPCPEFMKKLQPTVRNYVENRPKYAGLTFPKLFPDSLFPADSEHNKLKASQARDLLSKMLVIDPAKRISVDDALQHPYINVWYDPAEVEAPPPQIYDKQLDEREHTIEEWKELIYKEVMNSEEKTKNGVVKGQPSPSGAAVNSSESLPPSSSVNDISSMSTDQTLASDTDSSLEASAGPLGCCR
T3 sequence (P45983 whole entry): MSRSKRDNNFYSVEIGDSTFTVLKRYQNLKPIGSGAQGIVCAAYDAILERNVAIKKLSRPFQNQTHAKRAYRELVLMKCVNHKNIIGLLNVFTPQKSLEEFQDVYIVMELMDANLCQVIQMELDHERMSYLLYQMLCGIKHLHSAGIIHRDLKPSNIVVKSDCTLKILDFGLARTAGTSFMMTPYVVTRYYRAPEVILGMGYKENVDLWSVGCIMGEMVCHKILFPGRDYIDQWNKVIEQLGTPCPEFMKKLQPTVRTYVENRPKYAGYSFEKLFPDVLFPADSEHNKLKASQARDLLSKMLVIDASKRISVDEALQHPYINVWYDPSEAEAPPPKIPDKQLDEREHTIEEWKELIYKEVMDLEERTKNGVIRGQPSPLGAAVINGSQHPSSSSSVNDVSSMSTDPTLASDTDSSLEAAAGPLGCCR
T2 sequence (Q16539 whole entry): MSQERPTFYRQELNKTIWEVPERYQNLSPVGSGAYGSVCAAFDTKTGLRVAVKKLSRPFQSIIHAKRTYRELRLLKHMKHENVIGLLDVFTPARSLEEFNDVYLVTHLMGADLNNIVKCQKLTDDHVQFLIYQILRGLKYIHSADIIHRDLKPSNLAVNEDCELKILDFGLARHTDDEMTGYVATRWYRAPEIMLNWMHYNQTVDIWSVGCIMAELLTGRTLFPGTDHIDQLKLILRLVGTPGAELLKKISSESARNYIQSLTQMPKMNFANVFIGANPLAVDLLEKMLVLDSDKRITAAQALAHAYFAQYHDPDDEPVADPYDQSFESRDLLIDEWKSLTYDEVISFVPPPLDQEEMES
Glycogen synthase kinase-3 beta, sequence (P49841 whole entry): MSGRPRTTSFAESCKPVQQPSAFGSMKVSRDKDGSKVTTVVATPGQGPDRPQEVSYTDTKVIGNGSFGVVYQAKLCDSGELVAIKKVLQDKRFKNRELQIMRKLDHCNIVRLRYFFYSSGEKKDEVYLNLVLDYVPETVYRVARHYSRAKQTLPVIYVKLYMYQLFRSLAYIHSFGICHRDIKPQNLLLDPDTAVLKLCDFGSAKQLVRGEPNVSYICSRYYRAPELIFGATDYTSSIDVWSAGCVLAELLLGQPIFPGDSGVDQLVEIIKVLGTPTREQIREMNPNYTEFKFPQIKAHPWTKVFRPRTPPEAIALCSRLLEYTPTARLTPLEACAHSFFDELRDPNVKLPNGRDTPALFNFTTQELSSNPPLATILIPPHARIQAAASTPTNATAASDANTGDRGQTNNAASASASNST
Serine/threonine-protein kinase B-raf, sequence (P15056 whole entry): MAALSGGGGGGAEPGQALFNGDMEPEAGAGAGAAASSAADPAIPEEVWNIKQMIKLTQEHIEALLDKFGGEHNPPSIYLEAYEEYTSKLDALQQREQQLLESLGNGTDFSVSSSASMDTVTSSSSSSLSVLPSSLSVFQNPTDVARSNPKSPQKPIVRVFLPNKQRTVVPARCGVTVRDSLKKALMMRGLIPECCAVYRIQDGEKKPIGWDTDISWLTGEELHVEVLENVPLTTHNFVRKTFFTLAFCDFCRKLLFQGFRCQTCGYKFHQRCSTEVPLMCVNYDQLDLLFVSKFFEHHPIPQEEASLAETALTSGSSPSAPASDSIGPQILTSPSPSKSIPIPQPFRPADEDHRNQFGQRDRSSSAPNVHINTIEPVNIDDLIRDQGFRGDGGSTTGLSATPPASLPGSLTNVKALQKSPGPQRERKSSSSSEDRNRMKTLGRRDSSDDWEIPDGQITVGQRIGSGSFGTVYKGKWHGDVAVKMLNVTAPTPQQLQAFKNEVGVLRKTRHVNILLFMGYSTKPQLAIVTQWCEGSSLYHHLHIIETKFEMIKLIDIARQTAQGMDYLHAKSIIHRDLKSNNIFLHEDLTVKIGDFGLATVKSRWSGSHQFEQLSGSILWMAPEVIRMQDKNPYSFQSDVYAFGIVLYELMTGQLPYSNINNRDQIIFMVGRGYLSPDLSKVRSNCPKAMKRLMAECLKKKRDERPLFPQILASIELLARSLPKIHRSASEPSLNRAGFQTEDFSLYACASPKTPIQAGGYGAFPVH
Macrophage colony-stimulating factor 1 receptor, sequence (P07333 whole entry): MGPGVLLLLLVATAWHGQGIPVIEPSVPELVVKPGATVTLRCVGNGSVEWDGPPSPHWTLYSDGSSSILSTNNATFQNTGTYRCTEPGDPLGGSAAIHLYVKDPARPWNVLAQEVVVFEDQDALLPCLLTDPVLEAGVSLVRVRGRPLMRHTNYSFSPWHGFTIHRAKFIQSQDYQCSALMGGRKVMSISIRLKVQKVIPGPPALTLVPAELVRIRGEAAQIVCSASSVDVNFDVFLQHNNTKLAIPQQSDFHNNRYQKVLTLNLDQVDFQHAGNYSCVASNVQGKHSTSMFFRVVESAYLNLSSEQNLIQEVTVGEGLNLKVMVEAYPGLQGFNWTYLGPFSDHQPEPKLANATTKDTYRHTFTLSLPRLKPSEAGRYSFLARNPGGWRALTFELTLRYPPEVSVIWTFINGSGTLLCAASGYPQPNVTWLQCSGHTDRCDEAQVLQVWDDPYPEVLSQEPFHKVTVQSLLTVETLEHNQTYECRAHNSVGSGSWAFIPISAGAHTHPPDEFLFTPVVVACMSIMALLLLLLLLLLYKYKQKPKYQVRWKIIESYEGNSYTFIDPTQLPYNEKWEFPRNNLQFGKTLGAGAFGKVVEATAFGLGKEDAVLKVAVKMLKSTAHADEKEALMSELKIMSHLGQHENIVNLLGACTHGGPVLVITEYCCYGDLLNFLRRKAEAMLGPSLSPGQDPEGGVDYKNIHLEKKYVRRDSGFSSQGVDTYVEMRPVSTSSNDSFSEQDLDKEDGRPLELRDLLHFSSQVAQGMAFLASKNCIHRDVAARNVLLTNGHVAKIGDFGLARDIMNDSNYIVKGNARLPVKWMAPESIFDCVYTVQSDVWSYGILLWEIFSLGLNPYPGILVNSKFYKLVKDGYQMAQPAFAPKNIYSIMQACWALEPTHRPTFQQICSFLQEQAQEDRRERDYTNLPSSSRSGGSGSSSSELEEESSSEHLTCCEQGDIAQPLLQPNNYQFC
Mitogen-activated protein kinase kinase kinase 11, sequence (Q16584 whole entry): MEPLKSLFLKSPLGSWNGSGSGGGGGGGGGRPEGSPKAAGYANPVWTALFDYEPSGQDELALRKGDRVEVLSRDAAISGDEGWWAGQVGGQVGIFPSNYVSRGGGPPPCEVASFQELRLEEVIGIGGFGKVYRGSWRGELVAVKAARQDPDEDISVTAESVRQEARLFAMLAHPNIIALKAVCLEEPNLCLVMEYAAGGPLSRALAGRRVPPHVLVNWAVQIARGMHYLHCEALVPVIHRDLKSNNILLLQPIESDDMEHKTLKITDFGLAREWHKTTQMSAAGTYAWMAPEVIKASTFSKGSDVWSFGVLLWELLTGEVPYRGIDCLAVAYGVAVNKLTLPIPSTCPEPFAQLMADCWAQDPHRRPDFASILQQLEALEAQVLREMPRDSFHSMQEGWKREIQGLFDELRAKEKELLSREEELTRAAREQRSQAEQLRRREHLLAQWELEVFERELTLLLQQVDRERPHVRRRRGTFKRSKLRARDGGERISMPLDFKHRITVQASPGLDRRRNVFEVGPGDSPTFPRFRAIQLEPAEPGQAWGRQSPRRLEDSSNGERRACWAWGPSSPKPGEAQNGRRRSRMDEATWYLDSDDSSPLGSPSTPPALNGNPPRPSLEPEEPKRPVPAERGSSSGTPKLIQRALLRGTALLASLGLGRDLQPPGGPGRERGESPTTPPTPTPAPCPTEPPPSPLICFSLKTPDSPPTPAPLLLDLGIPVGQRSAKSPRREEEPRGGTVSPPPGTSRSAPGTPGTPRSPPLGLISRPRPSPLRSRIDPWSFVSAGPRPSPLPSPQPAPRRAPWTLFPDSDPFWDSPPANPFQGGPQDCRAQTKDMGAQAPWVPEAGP
Mitogen-activated protein kinase 1, sequence (P28482 whole entry): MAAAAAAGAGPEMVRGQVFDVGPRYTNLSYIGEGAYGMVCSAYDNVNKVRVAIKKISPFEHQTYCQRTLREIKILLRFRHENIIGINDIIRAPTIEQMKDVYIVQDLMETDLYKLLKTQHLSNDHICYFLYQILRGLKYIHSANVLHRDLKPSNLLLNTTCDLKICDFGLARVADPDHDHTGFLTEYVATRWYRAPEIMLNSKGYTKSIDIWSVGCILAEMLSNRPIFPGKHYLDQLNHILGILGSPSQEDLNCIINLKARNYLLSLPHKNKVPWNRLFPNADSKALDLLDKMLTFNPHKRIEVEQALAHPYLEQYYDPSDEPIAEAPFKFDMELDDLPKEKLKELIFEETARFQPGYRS

Row | SMILES | IC50 [1] | IC50 [2] | IC50 [3] | also measured
1 | COc1cc2c(cc1OC)C(c1ccc(Cl)cc1)=NCC2 | > 15.8 µM | > 15.8 µM | – | –
2 | COc1cc2c(cc1Cl)CCN=C2c1ccc2ccccc2c1 | > 15.8 µM | – | > 15.8 µM | –
3 | COc1cc2c(cc1Cl)CCN=C2c1cccc(F)c1 | > 15.8 µM | – | > 15.8 µM | –
4 | COc1cc2c(cc1Cl)C(c1cccc(F)c1)=NCC2 | 3.98 µM | > 15.8 µM | – | –
5 | COc1cc2c(cc1Cl)C(Cc1ccccc1)=NCC2 | > 15.8 µM | > 15.8 µM | – | –
6 | COc1cc2c(cc1Cl)C(c1cccc(Br)c1)=NCC2 | 0.398 µM | 12.6 µM | – | –
7 | CCC1=NCCc2cc(OC)c(Cl)cc21 | > 15.8 µM | > 15.8 µM | – | –
8 | COc1cc2c(cc1Cl)CCN=C2c1ccc(F)cc1 | > 15.8 µM | – | > 15.8 µM | –
9 | COc1cc2c(cc1Cl)C(c1ccc3ccccc3c1)=NCC2 | 1 µM | > 15.8 µM | – | –
10 | COc1cc2c(cc1Cl)C(c1ccc(Cl)c(Cl)c1)=NCC2 | 0.316 µM | 7.94 µM | – | IC50 [4]: 0.794 µM; IC50 [5]: 100 µM; IC50 [6]: 0.0501 µM; IC50 [7]: > 100 µM; IC50 [8]: > 10 µM; IC50 [9]: > 10 µM; IC50 [10]: > 10 µM; IC50 [11]: > 10 µM; IC50 [12]: > 10 µM; IC50 [13]: > 10 µM; IC50 [14]: > 10 µM; IC50 [15]: > 10 µM; IC50 [16]: > 10 µM; IC50 [17]: > 10 µM; IC50 [18]: > 10 µM
11 | COc1cc2c(cc1Cl)CCN=C2c1cccc(Cl)c1 | 12.6 µM | – | > 15.8 µM | –
12 | Clc1cccc(C2=NCCc3ccccc32)c1 | > 15.8 µM | > 15.8 µM | – | –
13 | COc1cc2c(cc1OC)C(c1ccc(Cl)c(Cl)c1)=NCC2 | 6.31 µM | > 15.8 µM | – | –
14 | COc1cc2c(cc1Cl)C(c1cccc(Cl)c1)=NCC2 | 0.251 µM | 7.94 µM | – | IC50 [4]: 1.26 µM; IC50 [5]: > 100 µM; IC50 [6]: 0.126 µM; IC50 [7]: > 100 µM; IC50 [8]: > 10 µM; IC50 [9]: > 10 µM; IC50 [10]: > 10 µM; IC50 [11]: > 10 µM; IC50 [12]: > 10 µM; IC50 [13]: > 10 µM; IC50 [14]: > 10 µM; IC50 [15]: > 10 µM; IC50 [16]: > 10 µM; IC50 [17]: > 10 µM; IC50 [18]: > 10 µM; IC50 [19]: > 10 µM
15 | COc1cc2c(cc1OC)C(c1ccccc1)=NCC2 | > 15.8 µM | – | > 15.8 µM | –
16 | COc1cc2c(cc1Cl)C(c1ccccc1)=NCC2 | 6.31 µM | > 15.8 µM | – | –
17 | COc1cc2c(cc1Cl)C(c1ccc(F)cc1)=NCC2 | 5.01 µM | > 15.8 µM | – | –
18 | COc1cccc(C2=NCCc3cc(OC)c(OC)cc32)c1 | > 15.8 µM | > 15.8 µM | – | –
19 | O=C(NC1CCNCC1)c1cccc(-c2n[nH]c3cc(Nc4ccccc4Cl)ccc23)c1 | – | – | – | IC50 [20]: 0.0794 µM; IC50 [21]: 0.00126 µM; IC50 [22]: 0.00398 µM
20 | COc1cc2c(cc1Cl)CCN=C2c1cccc(Br)c1 | 10 µM | – | > 15.8 µM | –
21 | COc1cc2c(cc1Cl)CCN=C2c1ccccc1 | > 15.8 µM | – | > 15.8 µM | –
22 | COc1cc2c(cc1Cl)C(c1cccc(C)c1)=NCC2 | 2 µM | > 15.8 µM | – | –
23 | COc1cc2c(cc1Cl)C(c1cccc(Cl)c1F)=NCC2 | 0.631 µM | 12.6 µM | – | –
24 | COc1cc2c(cc1OC)C(c1cccc(Cl)c1)=NCC2 | – | – | – | IC50 [21]: 10 µM
25 | COc1cc2c(cc1Cl)CCN=C2c1ccc(Cl)c(Cl)c1 | 15.8 µM | – | > 15.8 µM | –

From ChEMBL document CHEMBL1153754, “1-Aryl-3,4-dihydroisoquinoline inhibitors of JNK3” (Bioorg Med Chem Lett, 2009)
